From ChEMBL document CHEMBL1124763, “Nucleoside conjugates. 11. Synthesis and antitumor activity of 1-beta-D-arabinofuranosylcytosine and cytidine conjugates of thioether lipids” (1990)

Columns and labels:
Mus musculus [1] = assay: Range of survival days for antitumor activity against Ip implanted L1210 / 0 lymphoid leukemia in mice at a dose of 200 mg/kg per day after treatment 1,15;range is 22-32; type: functional; details: route intraperitoneal
Mus musculus [2] = assay: Survival time treated for antitumor activity against Ip implanted L1210 / 0 lymphoid leukemia in mice at a dose of 200 mg/kg per day after treatment 1;32/7; details: route intraperitoneal
Mus musculus [3] = assay: Survival time of treated mice for antitumor activity against Ip implanted L1210 / 0 lymphoid leukemia in mice at a dose of 400 mg/kg per day after treatment 1;29.5/7; details: route intraperitoneal
Mus musculus [4] = assay: Range of survival days for antitumor activity against Ip implanted L1210 / 0 lymphoid leukemia in mice at a dose of 200 mg/kg per day after treatment 5;range is 15-16; type: functional; details: route intraperitoneal
Mus musculus [5] = assay: Range of survival days for antitumor activity against Ip implanted L1210 / 0 lymphoid leukemia in mice at a dose of 200 mg/kg per day after treatment 1,8,15,22;range is 14->45; type: functional; details: route intraperitoneal
Mus musculus [6] = assay: Range of survival days for antitumor activity against Ip implanted L1210 / 0 lymphoid leukemia in mice at a dose of 300 mg/kg per day after treatment 1;range is 18->45; type: functional; details: route intraperitoneal
Mus musculus [7] = assay: Range of survival days for antitumor activity against Ip implanted L1210 / ara-C (I) lymphoid leukemia in mice at a dose of 400 mg/kg per day; type: functional; details: route intraperitoneal
Mus musculus [8] = assay: Range of survival days for antitumor activity against Ip implanted L1210 / 0 lymphoid leukemia in mice at a dose of 100 mg/kg per day after treatment 1,8,15,22;range is 16-32; type: functional; details: route intraperitoneal
Mus musculus [9] = assay: Survival time treated for antitumor activity against Ip implanted L1210 / 0 lymphoid leukemia in mice at a dose of 200 mg/kg per day after treatment 1,15;27.5/7; details: route intraperitoneal
Mus musculus [10] = assay: Increase of life span was determined against Ip implanted L1210 / 0 lymphoid leukemia in mice at a dose of 100 mg/kg per day after treatment 1,5,9; type: functional; details: L1210/0, ip, route intraperitoneal
Mus musculus [11] = assay: Range of survival days for antitumor activity against Ip implanted L1210 / 0 lymphoid leukemia in mice at a dose of 100 mg/kg per day after treatment 1,5,9;range is 18-29; type: functional; details: route intraperitoneal
Mus musculus [12] = assay: Increase of life span was determined against Ip implanted L1210 / ara-C (I) lymphoid leukemia in mice at a dose of 80 mg/kg per day; type: functional; details: route intraperitoneal
Mus musculus [13] = assay: Median survival time for antitumor activity against Ip implanted L1210 / 0 lymphoid leukemia in mice at a dose of 300 mg/kg per day after treatment 1,15; details: route intraperitoneal
Mus musculus [14] = assay: Range of survival days for antitumor activity against Ip implanted L1210 / 0 lymphoid leukemia in mice at a dose of 400 mg/kg per day after treatment 1;range is 9->45; type: functional; details: route intraperitoneal
Mus musculus [15] = assay: Median survival time for antitumor activity against Ip implanted L1210 / ara-C (I) lymphoid leukemia in mice at a dose of 80 mg/kg per day; details: route intraperitoneal
Mus musculus [16] = assay: Range of survival days for antitumor activity against Ip implanted L1210 / ara-C(I) lymphoid leukemia in mice at a dose of 80 mg/kg per day; type: functional; details: route intraperitoneal
Mus musculus [17] = assay: Increase of life span was determined against Ip implanted L1210 / 0 lymphoid leukemia in mice at a dose of 100 mg/kg per day after treatment 1,8,15,22; type: functional; details: L1210/0, ip, route intraperitoneal
Mus musculus [18] = assay: Increase of life span was determined against Ip implanted L1210 / 0 lymphoid leukemia in mice at a dose of 60 mg/kg per day after treatment 1-5; type: functional; details: L1210/0, ip, route intraperitoneal
Mus musculus [19] = assay: Range of survival days for antitumor activity against Ip implanted L1210 / ara-C (I) lymphoid leukemia in mice at a dose of 133 mg/kg per day; type: functional; details: route intraperitoneal
Mus musculus [20] = assay: Range of survival days for antitumor activity against Ip implanted L1210 / 0 lymphoid leukemia in mice at a dose of 60 mg/kg per day after treatment 1-5;range is 27->45; type: functional; details: route intraperitoneal
Mus musculus [21] = assay: Median survival time for antitumor activity against Ip implanted L1210 / ara-C (I) lymphoid leukemia in mice at a dose of 133 mg/kg per day; details: route intraperitoneal
Mus musculus [22] = assay: Increase of life span was determined against Ip implanted L1210 / 0 lymphoid leukemia in mice at a dose of 400 mg/kg per day; type: functional; details: L1210/0, ip, route intraperitoneal
Mus musculus [23] = assay: Survival time treated for antitumor activity against Ip implanted L1210 / 0 lymphoid leukemia in mice at a dose of 400 mg/kg per day after treatment -1;21.5/7; details: route intraperitoneal
Mus musculus [24] = assay: Survival time treated for antitumor activity against Ip implanted L1210 / 0 lymphoid leukemia in mice at a dose of 100 mg/kg per day after treatment 1,8,15,22;24/7; details: route intraperitoneal
Mus musculus [25] = assay: Increase of life span was determined against Ip implanted L1210 / 0 lymphoid leukemia in mice at a dose of 400 mg/kg per day after treatment 1; type: functional; details: L1210/0, ip, route intraperitoneal
Mus musculus [26] = assay: Range of survival days for antitumor activity against Ip implanted L1210 / 0 lymphoid leukemia in mice at a dose of 400 mg/kg per day after treatment 2;range is 12-26; type: functional; details: route intraperitoneal
Mus musculus [27] = assay: Increase of life span was determined against Ip implanted L1210 / 0 lymphoid leukemia in mice at a dose of 400 mg/kg per day after treatment 5; type: functional; details: L1210/0, ip, route intraperitoneal
Mus musculus [28] = assay: Range of survival days for antitumor activity against Ip implanted L1210 / 0 lymphoid leukemia in mice at a dose of 400 mg/kg per day after treatment 5;range is 12-16; type: functional; details: route intraperitoneal
Mus musculus [29] = assay: Survival time treated for antitumor activity against Ip implanted L1210 / 0 lymphoid leukemia in mice at a dose of 60 mg/kg per day after treatment 1-5;31/8; details: route intraperitoneal
Mus musculus [30] = assay: Range of survival days for antitumor activity against Ip implanted L1210 / ara-C (II) lymphoid leukemia in mice at a dose of 300 mg/kg per day; type: functional; details: route intraperitoneal
Mus musculus [31] = assay: Survival time of treated mice for antitumor activity against Ip implanted L1210 / 0 lymphoid leukemia in mice at a dose of 400 mg/kg per day after treatment 2;19.5/7; details: route intraperitoneal
Mus musculus [32] = assay: Survival time treated for antitumor activity against Ip implanted L1210 / 0 lymphoid leukemia in mice at a dose of 400 mg/kg per day;>42.5/7; details: route intraperitoneal
Mus musculus [33] = assay: Increase of life span was determined against Ip implanted L1210 / 0 lymphoid leukemia in mice at a dose of 300 mg/kg per day after treatment 1; type: functional; details: L1210/0, ip, route intraperitoneal
Mus musculus [34] = assay: Increase of life span was determined against Ip implanted L1210 / 0 lymphoid leukemia in mice at a dose of 200 mg/kg per day after treatment 1,15; type: functional; details: L1210/0, ip, route intraperitoneal

SMILES: CCCCCCCCCCCCCCCCCCSCC(COP(=O)(O)OP(=O)(O)OC[C@H]1O[C@@H](n2ccc(N)nc2=O)[C@@H](O)[C@@H]1O)OC(=O)CCCCCCCCCCCCCCC (mixture of isomers)
- Range of survival days (Mus musculus [1]): 22
- survival time (Mus musculus [2]): 32 days
- survival time (Mus musculus [3]): 29.5 days
- Range of survival days (Mus musculus [4]): 15
- Range of survival days (Mus musculus [5]): >14
- Range of survival days (Mus musculus [6]): >18
- Range (Mus musculus [7]): >45
- Range of survival days (Mus musculus [8]): 16
- survival time (Mus musculus [9]): 27.5 days
- ILS at 100 mg/kg/day (Mus musculus [10]): 213%
- Range of survival days (Mus musculus [11]): 18
- ILS at 80 mg/kg/day (Mus musculus [12]): > 350%
- median survival time (Mus musculus [13]): 24.5 days
- Range of survival days (Mus musculus [14]): >9
- median survival time (Mus musculus [15]): > 45 days
- Range (Mus musculus [16]): >25
- ILS at 100 mg/kg/day (Mus musculus [17]): 243%
- ILS at 60 mg/kg/day (Mus musculus [18]): 288%
- Range (Mus musculus [19]): >45
- Range of survival days (Mus musculus [20]): >27
- median survival time (Mus musculus [21]): > 45 days
- ILS at 400 mg/kg/day (Mus musculus [22]): > 507%
- survival time (Mus musculus [23]): 21.5 days
- survival time (Mus musculus [24]): 24 days
- ILS at 400 mg/kg/day (Mus musculus [25]): 321%
- Range of survival days (Mus musculus [26]): 12
- ILS at 400 mg/kg/day (Mus musculus [27]): 107%
- Range of survival days (Mus musculus [28]): 12
- survival time (Mus musculus [29]): 31 days
- Range (Mus musculus [30]): 8
- survival time (Mus musculus [31]): 19.5 days
- survival time (Mus musculus [32]): > 42.5 days
- ILS at 300 mg/kg/day (Mus musculus [33]): 371%
- ILS at 200 mg/kg/day (Mus musculus [34]): 293%
